Data from publication PMC9562188, “Characterization of the Aquaporin-9 Inhibitor RG100204 In Vitro and in db/db Mice” (Cells, 2022).

Biological target: T1, Aquaporin-9 (AQP9) (Homo sapiens, UniProt O43315)
T1 construct: 10×His-hAQP9 (N-terminal 10-histidine tag), purified from P. pastoris, reconstituted in proteoliposomes
T1 sequence (O43315 1-295): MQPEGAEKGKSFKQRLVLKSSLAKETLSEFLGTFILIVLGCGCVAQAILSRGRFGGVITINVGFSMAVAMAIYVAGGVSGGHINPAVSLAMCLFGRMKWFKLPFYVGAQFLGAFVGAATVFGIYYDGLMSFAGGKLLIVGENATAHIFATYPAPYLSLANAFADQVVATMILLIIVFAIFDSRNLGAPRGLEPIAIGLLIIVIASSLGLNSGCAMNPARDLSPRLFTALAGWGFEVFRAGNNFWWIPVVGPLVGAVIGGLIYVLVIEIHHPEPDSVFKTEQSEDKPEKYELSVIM
Assay: stopped-flow light scattering of purified AQP9 proteoliposomes ([…], −[…] Pgly); IC50 (water permeability; glycerol […]) from calcein quenching in human AQP9-expressing CHO cells
Assay type: cell-based

IC50: ~200 nM
SMILES: O=C(CCc1ccc(O)cc1)c1c(O)cc(O)cc1O [phlor, phloretin]
